Patent US7592326B2, “Method for stimulating the immune, inflammatory or neuroprotective response” (priority 2004, dated 2009)

Experiments:
DCs [1] = experiment: Mannose receptor-mediated endocytosis (FITC-dextran uptake); type: cell-based, human; conditions: DCs treated 24 h; FIG. 2
Experimental: Mannose receptor (MR)-mediated endocytosis was measured as the cellular uptake of FITC-dextran (DX) and quantified by flow cytometry. A total of 2×10^5 cells per sample were incubated in media containing FITC-DX (1 mg/ml) (Mv 40,000). After 15 min of incubation at 37° C. or 4° C. (as negative control), cells were washed four times with cold PBS containing 1% FCS and 0.01% NaN3 and fixed in 1% formaldehyde. The background (cells pulsed at 4° C.) was always subtracted.

p38 MAPK = experiment: Western blot signaling in human DCs: p38 MAPK; type: cell-based; conditions: 5 and 20 min treatment, FIG. 13A
Experimental: Human PBMC were isolated by Ficoll density gradient centrifugation from leukopacks supplied by the Department of Transfusion Medicine (Clinical Center, National Institute of Health, Bethesda, Md.). Monocytes were purified (>95%) from human PBMC with MACS CD14 monocyte isolation kit (Miltenyi Biotech Inc., Auburn, Calif.) according to the manufacturer's instruction. DCs were generated as described previously (Yang et al., 2001). In brief, DCs were generated by incubating purified monocytes at 2×10^5/ml in RPMI 1640 containing 10% FBS, 2 mM glutamine, 25 mM HEPES, 100 U/ml penicillin, 100 ug/ml streptomycin, 50 ng/ml recombinant human GM-CSF (PeproTech, Rocky Hill, N.J.), and 50 ng/ml recombinant human IL-4 (PeproTech) at 37° C. in a CO2 (5%) incubator for 7 days. On day 3 and 5 of the incubation, half of the culture medium was replaced with pre-warmed (37° C.) fresh GM-CSF- and IL-4-containing medium. On day 7, DCs were collected, washed three times with PBS, and serum-starved for 8 hours by incubating in serum-free RPMI-1640 containing GM-CSF and IL-4 (2×10^5/ml) at 37° C. in a CO2 (5%) incubator. Subsequently, DCs (2×10^6/sample) were incubated at 37° C. in the absence or presence of c-di-GMP or GMP (Sigma, St. Louis, Mo.) at concentrations specified for 5 or 30 minutes. […]

[2] = system: TLR1/2, TLR3, TLR4/MD2, TLR5, TLR2/6, TLR7, TLR8, and TLR9; experiment: HEK cells stably transfected with TLRs, IL-8 transcripts by QPCR; type: cell-based, human; conditions: 200 uM, 3 hours
Experimental: To test this hypothesis, human embryonic kidney (HEK) cells, which are normally unresponsive to TLR ligand stimulation, were stably transfected with TLR1/2, TLR3, TLR4/MD2, TLR5, TLR2/6, TLR7, TLR8, and TLR9. HEK 293 cells were cultured in Dulbecco's modified Eagle's medium supplemented with 10% fetal bovine serum. Cells were plated in 24-well tissue culture plates (1×10^5 cells/well) and maintained in the above medium for 24 h. The following day, cells were either left untreated or incubated with the indicated amount of TLR ligand. After the 3 hour treatment period, cells were harvested for total RNA using the Qiagen RNeasy kit per the manufacturer's protocol. The total RNA was converted to cDNA and QPCR was performed to determine the number of copies of IL-8.

Murine splenic DCs = experiment: Activation of murine splenic DCs; conditions: 200 uM, 24 h
DCs [3] = experiment: DC apoptosis (FITC-Annexin V/PI double staining); type: cell-based, human; conditions: 24 h
Experimental: FITC-Annexin V/Propidium Iodure (PI) double staining was used to detect apoptosis of DCs treated with c-di-GMP. Immature and mature DCs, untreated or treated with c-di-GMP for 24 h, were harvested and washed twice with ice cold PBS; specific binding of FITC-annexin V and staining with PI was performed with an apoptosis detection kit accordingly to the manufacturer's instructions. The cells were then analyzed by flow cytometry.

[4] = pH 10

Nc1nc(=O)c2ncn([C@@H]3OC4COP(=O)(O)O[C@H]5[C@@H](O)[C@H](n6cnc7c(=O)nc(N)[nH]c76)O[C@@H]5COP(=O)(O)OC4C3O)c2[nH]1 (some centres unmarked) [c-di-GMP, Bis(3′→5′)-cyclic diguanylic acid]
uptake of FITC-DX (MR-mediated endocytosis) (DCs [1]): did not induce any major effect
activation of p38 MAPK (phospho-p38) (p38 MAPK): activated
stimulation of LPS-sensitive MD2/TLR4-HEK cell line [2]: failed to stimulate
activation of TLR expressing HEK cell lines (IL-8 transcripts) ([2]; FIG. 14): none of the TLR expressing cell lines were activated
surface expression of co-stimulatory molecules CD80 and CD86 (Murine splenic DCs; FIG. 9A): increase
TNF and IL-8 protein in supernatant (Murine splenic DCs; FIGS. 9B and 9C): increase
Early apoptosis (% of annexin V^+/PI^− cells) (DCs [3]; cdiGMP 5 μM): 23%
Late apoptosis (% of annexin V^+/PI^+ cells) (DCs [3]; cdiGMP 5 μM): 36%
Early apoptosis (% of annexin V^+/PI^− cells) (DCs [3]; cdiGMP 50 μM): 31%
Late apoptosis (% of annexin V^+/PI^+ cells) (DCs [3]; cdiGMP 50 μM): 40%
Early apoptosis (% of annexin V^+/PI^− cells) (DCs [3]; cdiGMP 100 μM): 18%
Late apoptosis (% of annexin V^+/PI^+ cells) (DCs [3]; cdiGMP 100 μM): 42%
effect on DC apoptosis (DCs [3]; immature and mature DCs): did not appear to have any effect
stability at physiological conditions [4]: stable
